Experimental data reported in patent US8329726B2, “Inhibitors of VEGF receptor and HGF receptor signaling” (MethylGene Inc., priority 2005, dated 2012).
Read-outs that look alike come from different tables or passages of the source.

Assays:
[1] = biological target: T1, recombinant human c-Met/HGF receptor (Homo sapiens, UniProt P08581); test: In vitro receptor tyrosine kinase assay (DELFIA), c-Met/HGF receptor; format: biochemical
T1 construct: His tag (pBlueBacHis2A vector); made in house; host or cells: Hi-5 cells (Trichoplusia ni), baculovirus
Protocol: Cell pellets were frozen at −80° C. until purification was performed.
The coated plates were washed and stored at 4° C. […] After incubation, the kinase reactions were quenched with EDTA and the plates were washed.

[2] = biological target: T2, VEGF receptor KDR (Homo sapiens, UniProt P35968); test: In vitro receptor tyrosine kinase assay (DELFIA), VEGF receptor KDR; format: biochemical
T2 construct: made in house; host or cells: Sf9 cells (Spodoptera frugiperda), baculovirus

[3] = test system: A549; test: A549 wound healing inhibition (HGF dependent migration); format: cell-based; conditions: Homo sapiens, A549 cells, read-out: A549 WOUND HEALING INHIB IC50
Description: (§1) HGF has well known activity in terms of inducing scattering and migration (wound healing) (Wells et al., Cell Motil Cytoskeleton. 2005 November 62(3):180-94; Miura et al., Urology 2001 December 58(6):1064-9; Nishimura et al., Int J Urol. 1998 May 5(3):276-81; Wang et al., Mol Cancer Ther. 2003 November; 2(11):1085-92; and Christensen et al., Cancer Res. 2003 Nov. 1; 63(21):7345-55).

[4] = test system: DU145; test: DU145 scattering inhibition (HGF dependent scattering); format: cell-based; conditions: Homo sapiens, DU-145; HGF dependent scattering, DU145 cells; read-out: DU145 SCATTERING INHIB IC50
Description: as §1

[5] = biological target: T3, TPR-MET fusion protein (Homo sapiens, UniProt P08581); test: C-Met phosphorylation cell-based assay (MNNGHOS cells)
T3 construct: the MET gene on chromosome 7 encoding for its cytoplasmic region catalytic domain; host or cells: MNNGHOS cells; the other entry of the earlier key: TPR (P12270, Nucleoprotein TPR)
Description: C-Met Phosphorylation Cell-Based Assay
Signal was quantitated by densitometry on Alpha-Imager.

[6] = recombinant c-Met IC, 10 uM ATP, DELFIA, read-out: C-Met (IC50)
[7] = GST-VEGFR2 806-1356, 0.6 uM ATP, DELFIA, read-out: VEGFR (IC50)
[8] = MNNGHOS cells, 3 hours treatment, immunoblot, read-out: Y1230-34-35 TPR-MET phosphorylation (IC50)

T2 sequence (P35968 806-1356): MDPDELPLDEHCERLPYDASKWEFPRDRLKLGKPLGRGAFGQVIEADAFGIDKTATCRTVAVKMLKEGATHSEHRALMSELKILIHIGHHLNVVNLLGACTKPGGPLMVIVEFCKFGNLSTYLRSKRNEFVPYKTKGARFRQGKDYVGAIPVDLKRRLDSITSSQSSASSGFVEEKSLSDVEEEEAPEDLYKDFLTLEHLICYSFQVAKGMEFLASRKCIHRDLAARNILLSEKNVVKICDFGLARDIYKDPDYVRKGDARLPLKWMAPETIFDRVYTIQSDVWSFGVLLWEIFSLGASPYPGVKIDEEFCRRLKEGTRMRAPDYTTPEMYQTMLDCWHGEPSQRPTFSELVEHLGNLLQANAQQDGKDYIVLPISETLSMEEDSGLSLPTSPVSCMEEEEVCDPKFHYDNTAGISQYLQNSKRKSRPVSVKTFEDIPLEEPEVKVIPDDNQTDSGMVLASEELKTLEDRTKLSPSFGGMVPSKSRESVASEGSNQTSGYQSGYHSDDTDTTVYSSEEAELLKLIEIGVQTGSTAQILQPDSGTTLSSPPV
T3 sequence (P08581 with tags, fused parts or gaps): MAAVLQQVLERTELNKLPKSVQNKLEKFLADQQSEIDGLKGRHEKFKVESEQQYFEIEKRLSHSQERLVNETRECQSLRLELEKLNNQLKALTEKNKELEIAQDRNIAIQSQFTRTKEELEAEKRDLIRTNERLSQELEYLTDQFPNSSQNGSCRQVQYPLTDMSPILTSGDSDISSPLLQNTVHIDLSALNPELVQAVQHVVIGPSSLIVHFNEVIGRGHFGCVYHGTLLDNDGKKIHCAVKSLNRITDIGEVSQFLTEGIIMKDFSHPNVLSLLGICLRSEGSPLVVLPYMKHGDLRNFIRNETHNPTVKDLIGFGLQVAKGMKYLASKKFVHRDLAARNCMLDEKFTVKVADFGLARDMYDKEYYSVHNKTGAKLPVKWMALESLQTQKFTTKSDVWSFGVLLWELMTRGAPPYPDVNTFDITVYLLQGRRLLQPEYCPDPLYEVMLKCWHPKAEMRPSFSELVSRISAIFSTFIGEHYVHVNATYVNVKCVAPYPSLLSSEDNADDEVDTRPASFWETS
T1 sequence (P08581 1078-1337): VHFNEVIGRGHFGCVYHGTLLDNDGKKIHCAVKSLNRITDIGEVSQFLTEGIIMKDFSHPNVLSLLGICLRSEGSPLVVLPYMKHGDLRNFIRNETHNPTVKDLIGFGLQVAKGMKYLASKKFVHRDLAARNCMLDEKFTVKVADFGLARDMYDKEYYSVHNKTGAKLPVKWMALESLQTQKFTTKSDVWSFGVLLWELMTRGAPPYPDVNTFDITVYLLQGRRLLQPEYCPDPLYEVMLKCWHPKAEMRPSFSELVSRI

| Compound | IC50 ([1]; read-out: CMET IC50) [nM] | IC50 ([2]; read-out: VEGFR IC50) [nM] | IC50 [3] [nM] | IC50 [4] [nM] | IC50 [1, 6] [nM] | IC50 [2, 7] [nM] | IC50 [5, 8] [nM] | IC50 [1] [nM] | IC50 [5] [nM] |
| --- | --- | --- | --- | --- | --- | --- | --- | --- | --- |
| CCn1cnc(-c2cc3nccc(Oc4ccc(NC(=O)C(=O)NCCc5ccccc5OC)cc4F)c3s2)c1 | 50 to 250 | < 50 | 1000 to 5000 | > 10000 |  |  |  |  |  |
| CCn1cnc(-c2cc3nccc(Oc4ccc(NC(=O)C(=O)NCCc5ccccc5F)cc4F)c3s2)c1 | 50 to 250 | 50 to 250 | 1000 to 5000 | > 10000 |  |  |  |  |  |
| CCn1cncc1-c1cc2nccc(Oc3ccc(NC(=O)CC(=O)Nc4ccccc4OC)cc3F)c2s1 | 50 to 250 | 50 to 250 | 1000 to 5000 | < 1000 |  |  |  |  |  |
| COc1ccccc1NC(=O)CC(=O)Nc1ccc(Oc2ccnc3cc(-c4cccc(CN(C)C)c4)sc23)c(F)c1 | < 50 | 50 to 250 | < 1000 | < 1000 |  |  |  |  |  |
| COc1ccccc1NC(=O)CC(=O)Nc1ccc(Oc2ccnc3cc(-c4cn(C(C)C)cn4)sc23)c(F)c1 | < 50 | < 50 | < 1000 | < 1000 |  |  |  |  |  |
| CCn1cnc(-c2cc3nccc(Oc4ccc(NC(=O)CC(=O)Nc5ccc(F)cc5)cc4F)c3s2)c1 | < 50 | < 50 | < 1000 | < 1000 |  |  |  |  |  |
| CCCn1cnc(-c2cc3nccc(Oc4ccc(NC(=O)CC(=O)Nc5ccccc5OC)cc4F)c3s2)c1 | < 50 | < 50 | 1000 to 5000 | < 1000 |  |  |  |  |  |
| CCn1cnc(-c2cc3nccc(Oc4ccc(NC(=O)C5(C(=O)Nc6ccccc6OC)CC5)cc4F)c3s2)c1 | < 50 | < 50 | < 1000 | < 1000 |  |  |  |  |  |
| CNCCn1cnc(-c2cc3nccc(Oc4ccc(NC(=O)CC(=O)Nc5ccccc5OC)cc4F)c3s2)c1 | 50 to 250 | < 50 | 1000 to 5000 | 1000 to 5000 |  |  |  |  |  |
| Cn1ccnc1-c1cc2nccc(Oc3ccc(NC(=O)CC(=O)Nc4ccccc4)cc3F)c2s1 [Compound 5b, N^1-(3-Fluoro-4-(2-(1-methyl-1H-imidazol-2-yl)thieno[3,2-b]pyridin-7-yloxy)phenyl)-N^3-phenylmalonamide] |  |  |  |  | 52 | 4 | 40 |  |  |
| Cn1cnc(-c2cc3nccc(Oc4ccc(NC(=O)CC(=O)Nc5ccccc5)cc4F)c3s2)c1 [Compound 5c, N^1-{3-Fluoro-4-[2-(1-methyl-1H-imidazol-4-yl)thieno[3,2-b]pyridin-7-yloxy]-phenyl}-N^3-phenylmalonamide] |  |  |  |  | 19 | 3 | 8 |  |  |
| Cn1cncc1-c1cc2nccc(Oc3ccc(NC(=O)CC(=O)Nc4ccccc4)cc3F)c2s1 [Compound 5e, N^1-(3-Fluoro-4-(2-(1-methyl-1H-imidazol-5-yl)thieno[3,2-b]pyridin-7-yloxy)phenyl)-N^3-phenylmalonamide] |  |  |  |  |  | 5 |  | 16 | 155 |
| COc1ccccc1NC(=O)CC(=O)Nc1ccc(Oc2ccnc3cc(-c4nccn4C)sc23)c(F)c1 [Compound 28a, N^1-(3-Fluoro-4-(2-(1-methyl-1H-imidazol-2-yl)thieno[3,2-b]pyridin-7-yloxy)phenyl)-N^3-(2-methoxyphenyl)malonamide] |  |  |  |  | 42 | 5 | ~200 |  |  |
| Cn1ccnc1-c1cc2nccc(Oc3ccc(NC(=O)CC(=O)Nc4cccnc4)cc3F)c2s1 [drawing 282] | 250 to 500 | < 50 | < 1000 | 1000 to 5000 |  |  |  |  |  |
| COc1ccccc1NC(=O)CC(=O)Nc1ccc(Oc2ccnc3cc(-c4nccn4C)sc23)c(F)c1 [drawing 284] | < 50 | < 50 | < 1000 | 1000 to 5000 |  |  |  |  |  |
| CC(C(=O)Nc1ccccc1)C(=O)Nc1ccc(Oc2ccnc3cc(-c4nccn4C)sc23)c(F)c1 (stereo not drawn) [drawing 286] | 50 to 250 | < 50 | 1000 to 5000 | 1000 to 5000 |  |  |  |  |  |
| Cn1cnc(-c2cc3nccc(Oc4ccc(NC(=O)CC(=O)Nc5ccccc5)cc4F)c3s2)c1 [drawing 287] | < 50 | < 50 | < 1000 | < 1000 |  |  |  |  |  |
| Cn1cncc1-c1cc2nccc(Oc3ccc(NC(=O)CC(=O)Nc4ccccc4)cc3F)c2s1 [drawing 288] | < 50 | < 50 | < 1000 | < 1000 |  |  |  |  |  |
| Cn1cncc1-c1cc2nccc(Oc3ccc(NC(=O)CC(=O)Nc4cccnc4)cc3F)c2s1 [drawing 290] | 50 to 250 | < 50 | 1000 to 5000 | 1000 to 5000 |  |  |  |  |  |
| CCn1cnc(-c2cc3nccc(Oc4ccc(NC(=O)CC(=O)Nc5ccccc5OC)cc4F)c3s2)c1 [drawing 292] | < 50 | < 50 | 1000 to 5000 | < 1000 |  |  |  |  |  |
| CN(C)[C@@H]1CCN(C(=O)c2cc3nccc(Oc4ccc(NC(=O)CC(=O)Nc5ccccc5)cc4F)c3s2)C1 [drawing 294] | 50 to 250 | 50 to 250 | < 1000 | 1000 to 5000 |  |  |  |  |  |
| CCn1cnc(-c2cc3nccc(Oc4ccc(NC(=O)C5(C(=O)Nc6ccccc6)CC5)cc4F)c3s2)c1 [drawing 317] | < 50 | < 50 | < 1000 | < 1000 |  |  |  |  |  |
| CN1CCN(CCN(C)Cc2ccc(-c3cc4nccc(Oc5ccc(NC(=O)CC(=O)Nc6ccccc6)cc5F)c4s3)cc2)CC1 [drawing 351] | < 50 | < 50 | < 1000 | < 1000 |  |  |  |  |  |

Now from value to compound, other results behind:

| IC50 ([1]; read-out: CMET IC50) [nM] | IC50 ([2]; read-out: VEGFR IC50) [nM] | IC50 [3] [nM] | IC50 [4] [nM] | IC50 [1, 6] [nM] | IC50 [2, 7] [nM] | IC50 [5, 8] [nM] | Compound | IC50 [1] [nM] | IC50 [5] [nM] |
| --- | --- | --- | --- | --- | --- | --- | --- | --- | --- |
| 50 to 250 | 250 to 500 | 1000 to 5000 | > 10000 |  |  |  | O=C(CC(=O)Nc1ccccc1F)Nc1ccc(Oc2ccnc3cc(C#CCN4CCOCC4)sc23)c(F)c1 |  |  |
| 50 to 250 | 50 to 250 | > 10000 | > 10000 |  |  |  | COc1ccccc1NC(=O)CC(=O)Nc1ccc(Oc2ccnc3cc(C#CCN(C)C)sc23)c(F)c1 |  |  |
| 50 to 250 | < 50 | 1000 to 5000 | 1000 to 5000 |  |  |  | COc1ccccc1NC(=O)CC(=O)Nc1ccc(Oc2ccnc3cc(C(=O)N4CC(O)C4)sc23)c(F)c1 |  |  |
| 50 to 250 | 50 to 250 | > 10000 | 1000 to 5000 |  |  |  | CN(C)CC#Cc1cc2nccc(Oc3ccc(NC(=O)CC(=O)Nc4ccccc4F)cc3F)c2s1 |  |  |
| 50 to 250 | 50 to 250 | 1000 to 5000 | 1000 to 5000 |  |  |  | CCn1cncc1-c1cc2nccc(Oc3ccc(NC(=O)CC(=O)Nc4ccccc4F)cc3F)c2s1 |  |  |
| 50 to 250 | 50 to 250 | > 10000 | 1000 to 5000 |  |  |  | COc1ccccc1NC(=O)CC(=O)Nc1ccc(Oc2ccnc3cc(-c4cccc(CN5CCOCC5)c4)sc23)c(F)c1 |  |  |
| < 50 | 50 to 250 | 1000 to 5000 | 1000 to 5000 |  |  |  | O=C(CC(=O)Nc1ccccc1F)Nc1ccc(Oc2ccnc3cc(-c4cccc(CN5CCOCC5)c4)sc23)c(F)c1 |  |  |
| < 50 | < 50 | 1000 to 5000 | < 1000 |  |  |  | CC(C)n1cnc(-c2cc3nccc(Oc4ccc(NC(=O)CC(=O)Nc5ccccc5F)cc4F)c3s2)c1 |  |  |
| < 50 | < 50 | < 1000 | < 1000 |  |  |  | CCCn1cnc(-c2cc3nccc(Oc4ccc(NC(=O)CC(=O)Nc5ccccc5F)cc4F)c3s2)c1 |  |  |
|  |  |  |  | 40 | 4 | ~2000 | O=C(CC(=O)Nc1ccc(Oc2ccnc3cc(C(=O)N4CCCC4)sc23)c(F)c1)Nc1ccccc1 [Compound 5f, N^1-(3-Fluoro-4-(2-(pyrrolidine-1-carbonyl)thieno[3,2-b]pyridin-7-yloxy)phenyl)-N^3-phenylmalonamide] |  |  |
| < 50 | < 50 | < 1000 | < 1000 |  |  |  | Cn1ccnc1-c1cc2nccc(Oc3ccc(NC(=O)CC(=O)Nc4ccccc4F)cc3F)c2s1 [drawing 285] |  |  |
| < 50 | < 50 | 1000 to 5000 | 1000 to 5000 |  |  |  | COc1ccccc1NC(=O)CC(=O)Nc1ccc(Oc2ccnc3cc(-c4cncn4C)sc23)c(F)c1 [drawing 289] |  |  |
| < 50 | < 50 | < 1000 | < 1000 |  |  |  | CCn1cnc(-c2cc3nccc(Oc4ccc(NC(=O)CC(=O)Nc5ccccc5F)cc4F)c3s2)c1 [drawing 293] |  |  |
| 50 to 250 | < 50 | 1000 to 5000 | < 1000 |  |  |  | COc1ccccc1NC(=O)CC(=O)Nc1ccc(Oc2ccnc3cc(-c4ccc(CN5CCCC5)cc4)sc23)c(F)c1 [drawing 295] |  |  |
| < 50 | 50 to 250 | 1000 to 5000 | < 1000 |  |  |  | CN(C)Cc1cccc(-c2cc3nccc(Oc4ccc(NC(=O)CC(=O)Nc5ccccc5F)cc4F)c3s2)c1 [drawing 316] |  |  |
